Experimental data as given in patent publication US9593305B2, “Differentiation of pluripotent stem cells” (Janssen Biotech, Inc., priority 2008, dated 2017).

System: H1 human embryonic stem cells
Experiment: Analog screening with GDF-8 and growth factor/agonist pool (Example 8, Tables 7 and 8)
Assay type: cell-based
Parameters: Cell Number, % of positive control / Sox17 Expression, % of positive control: tested at 2.5 µM
Conditions: for outcome in analog screening of hits from primary screening: 2.5 μM with GDF-8 and growth factor/agonist pool
Method in brief: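 H1 hESC clusters, washed free of growth factors, fed on alternate days over 4 days with DMEM:F12, 0.5% FCS, 2.5 μM compound, 25 ng/ml GDF-8 plus a 50 ng/ml growth-factor pool. Fixed cells immunostained for SOX17 and imaged; total SOX17 intensity normalised to positive control.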

[1] = EGF, FGF, PDGF-A, VEGF, PDGF-D, muscimol, GDF8
[2] = Plate 2, compound + EGF, FGF, PDGF-A, VEGF, PDGF-D, muscimol, GDF8
[3] = Plate 2, compound + EGF, FGF, PDGF-A, VEGF, PDGF-D, muscimol, GDF8, positive control Activin A/Wnt3a
[4] = Plate 1, compound + EGF, FGF, PDGF-A, VEGF, PDGF-D, muscimol, GDF8
[5] = Plate 1, compound + EGF, FGF, PDGF-A, VEGF, PDGF-D, muscimol, GDF8, positive control Activin A/Wnt3a
[6] = Table 8: hits with greater than 25% activity of the positive control, with GDF-8 and growth factors/agonists

SMILES | Cell Number, % of positive control [1] | Cell Number, Average Total Cell Number [1] | Sox17 Expression, % of positive control [1] | Sox17 Expression, Average Total Intensity [1] | Cell Number, Average Total Cell Number [2] | Sox17 Expression, Average Total Intensity [2] | Cell Number, % of positive control [3] | Sox17 Expression, % of positive control [3] | Cell Number, Average Total Cell Number [4] | Sox17 Expression, Average Total Intensity [4] | Cell Number, % of positive control [5] | Sox17 Expression, % of positive control [5] | Cell Number, % of positive control [6] | Sox17 Expression, % of positive control [6] | Sox17 Expression, Average Total Intensity [6] | outcome in analog screening of hits from primary screening
O=C1CCN2CCN(CC2)Cc2cccc(c2)Nc2ncnc(n2)-c2ccnc(c2)NCCCN1 [Compound 13, 1,8,10,12,17,19,23,27,33-Nonaazapentacyclo[25.2.2.1˜3,7˜0.1˜9.13˜1˜14.18˜]tetratriaconta-3(34), 4,6,9(33), 10,12,14(32), 15,17-nonaen-24-one] | 52.6% | 7045 | 28.8% | 7.22E+07 | 9123 | 1.13E+08 | 57.7 % of positive control | 39.7 % of positive control | – | – | – | – | – | – | – | –
CCN1CC(=O)NCCCc2cc(ccn2)-c2ncnc(n2)Nc2cc(Cl)cc(c2)C1 [Compound 14, 10-Chloro-14-ethyl-3,5,7,14,17,22,27-heptaazatetracyclo[19.3.1.1˜2,6˜1˜8,12˜]heptacosa-1(25), 2(27), 3,5,8(26), 9,11,21,23-nonaen-16-one] | 53.5% | 8464 | 29.1% | 8.33E+07 | – | – | – | – | 9344 | 1.23E+08 | 69.8 % of positive control | 49.0 % of positive control | – | – | – | –
CCN1CC(=O)NCCCc2cccc(c2)-c2ncnc(n2)Nc2cccc(c2)C1 [Compound 15, 14-Ethyl-3,5,7,14,17,27-hexaazatetracyclo[19.3.1.1˜2,6˜1-8.12˜]heptacosa-1(25), 2(27), 3,5,8(26), 9,11,21,23-nonaen-16-one] | 45.8% | 7234 | 27.8% | 7.95E+07 | – | – | – | – | 8448 | 8.64E+07 | 63.1 % of positive control | 34.5 % of positive control | – | – | – | –
O=C1NCCCc2cncc(c2)-c2ncnc(n2)Nc2cccc(c2)CN2CCCC1C2 (stereo not drawn) [Compound 17, 3,5,7,14,20,26,31-Heptaazapentacyclo[22.3.1.1-2,6˜1˜8,12˜1˜14,18˜]hentriaconta-1(28), 2(31), 3,5,8(30), 9,11,24,26-nonaen-19-one] | 59.6% | 7988 | 45.0% | 1.13E+08 | – | – | – | – | – | – | – | – | – | – | – | –
O=C1NCCCc2cncc(c2)-c2ncnc(n2)Nc2cccc(c2)CN2CCC[C@@H]12 [Compound 18, (18S)-3,5,7,14,20,26,30-Heptaazapentacyclo[22.3.1.1˜2,6˜1˜8,12˜0.0˜14,18˜]triaconta-1(28), 2(30), 3,5,8(29), 9,11,24,26-nonaen-19-one] | 55.3% | 8742 | 35.4% | 1.01E+08 | – | – | – | – | 13037 | 1.63E+08 | 97.3 % of positive control | 65.2 % of positive control | – | – | – | –
CN1CCC(=O)NCCCc2cncc(c2)-c2ncnc(n2)Nc2cccc(c2)C1 [Compound 19, 14-Methyl-3,5,7,14,18,24,28-heptaazatetracyclo[20.3.1.1˜2,6˜0.1˜8,12˜]octacosa-1(26), 2(28), 3,5,8(27), 9,11,22,24-nonaen-17-one] | 58.2% | 7799 | 27.2% | 6.82E+07 | 8425 | 1.19E+08 | 53.3 % of positive control | 41.6 % of positive control | – | – | – | – | – | – | – | –
CN1CCCC(=O)NCCCc2cncc(c2)-c2ncnc(n2)Nc2cccc(c2)C1 [Compound 20, 14-Methyl-3,5,7,14,19,25,29-heptaazatetracyclo[21.3.1.1˜2,6˜0.1˜8,12˜]nonacosa-1(27), 2(29), 3,5,8(28), 9,11,23,25-nonaen-18-one] | 70.4% | 9434 | 59.1% | 1.48E+08 | 7346 | 8.90E+07 | 46.5 % of positive control | 31.2 % of positive control | 9434 | 1.48E+08 | 70.4 % of positive control | 59.1 % of positive control | – | – | – | –
CN1CCC(=O)NCCCNc2cccc(c2)-c2ncnc(n2)Nc2cccc(c2)C1 [Compound 21, 14-Methyl-3,5,7,14,18,22,29-heptaazatetracyclo[21.3.1.1˜2,6˜0.1˜8,12˜]nonacosa-1(27), 2(29), 3,5,8(28), 9,11,23,25-nonaen-17-one] | – | – | – | – | – | – | – | – | 12640 | 1.65E+08 | 94.4 % of positive control | 65.9 % of positive control | 94.4 % of positive control | 65.9 % of positive control | 1.65E+08 | –
O=C1CCN2CCN(CC2)Cc2cccc(c2)Nc2ncnc(n2)-c2cncc(c2)CCCN1 [Compound 23, 1,8,10,12,16,22,26,32-Octaazapentacyclo[24.2.2.1-3,7˜0.1˜9,13˜0.1˜14,18˜]tritriaconta-3(33), 4,6,9(32), 10,12,14(31), 15,17-nonaen-23-one] | – | – | – | – | – | – | – | – | 12165 | 2.15E+08 | 90.8 % of positive control | 86.0 % of positive control | 90.8 % of positive control | 86.0 % of positive control | 2.15E+08 | –
CCN1CC(=O)NCCCc2cc(ccc2F)-c2ncnc(n2)Nc2cc(Cl)cc(c2)C1 [Compound 25, 10-Chloro-14-ethyl-22-fluoro-3,5,7,14,17,27-hexaazatetracyclo[19.3.1.1˜2,6˜0.1˜8,12˜]heptacosa-1(25), 2(27), 3,5,8(26), 9,11,21,23-nonaen-16-one] | – | – | – | – | 6571 | 7.60E+07 | 41.6 % of positive control | 26.6 % of positive control | – | – | – | – | 41.6 % of positive control | 26.6 % of positive control | 7.60E+07 | –
O=C1CCN2CCN(CC2)Cc2cc(Cl)cc(c2)Nc2ncnc(n2)-c2cncc(c2)CCCN1 [Compound 34, 5-Chloro-1,8,10,12,16,22,26,32-octaazapentacyclo[24.2.2.1˜3.7˜0.1˜9,13˜0.1˜14.18˜]tritriaconta-3(33), 4,6,9(32), 10,12,14(31), 15,17-nonaen-23-one] | – | – | – | – | 8907 | 9.99E+07 | 56.3 % of positive control | 35.0 % of positive control | – | – | – | – | 56.3 % of positive control | 35.0 % of positive control | 9.99E+07 | repeated as hits
CCN1CC(=O)NCCCc2cncc(c2)-c2ncnc(n2)Nc2cc(Cl)cc(c2)C1 [Compound 35, 10-Chloro-14-ethyl-3,5,7,14,17,23,27-heptaazatetracyclo[19.3.1.1˜2,6˜0.1˜8,12]Theptacosa-1(25), 2(27), 3,5,8(26), 9,11,21,23-nonaen-16-one] | – | – | – | – | 10461 | 1.59E+08 | 66.2 % of positive control | 55.7 % of positive control | – | – | – | – | 66.2 % of positive control | 55.7 % of positive control | 1.59E+08 | repeated as hits
